This note sets out measurements from patent US10221173B2, “Chemical compounds” (AstraZeneca AB, priority 2017, dated 2019).

Data set [1] has as its target estrogen receptor (ERα) in CAMA-1 cells (Homo sapiens (Human), UniProt P03372). The experiment in a line: Western blotting assay, ER down-regulation in CAMA-1. The note with it: CAMA-1, 100 nM compound, 48 h, vs 100 nM fulvestrant. The format is cell-based.
Data set [2] concerns the target T1, Estrogen Receptor (ERα) in MCF-7 cells (Homo sapiens (Human), UniProt P03372). The experiment in a line: Western blotting assay, ER down-regulation in MCF-7. The format is cell-based. Conditions: MCF-7, 100 nM compound, 48 h, vs 100 nM fulvestrant. For orientation: A western blot detects proteins with antibodies after separation by electrophoresis.
The target in data set [3] is T1, Estrogen Receptor (ERα) in MCF-7 cells. Description: MCF-7 ER down-regulation assay (immuno-fluorescence). The format is cell-based.
For data set [4], the target named is recombinant human Estrogen Receptor alpha ligand binding domain (ER alpha-LBD (GST)) (Homo sapiens (Human), UniProt P03372). Description: ERα binding assay (LanthaScreen TR-FRET competition). A general note: In TR-FRET formats the signal depends on donor and acceptor labels being close together.
Chain of recombinant human Estrogen Receptor alpha ligand binding domain (ER alpha-LBD (GST)) (P03372 307-554): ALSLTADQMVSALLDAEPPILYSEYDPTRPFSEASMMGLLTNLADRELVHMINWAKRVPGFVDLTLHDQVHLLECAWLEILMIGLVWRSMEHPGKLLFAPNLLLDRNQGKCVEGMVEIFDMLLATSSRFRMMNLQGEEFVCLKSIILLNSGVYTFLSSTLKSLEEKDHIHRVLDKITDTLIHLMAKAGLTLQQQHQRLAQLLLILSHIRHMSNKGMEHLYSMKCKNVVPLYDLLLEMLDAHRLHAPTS
Data set [5] in a line: Thermodynamic solubility (shake-flask). The format is physicochemical. Conditions: thermodynamic from solid, phosphate buffer pH 7.4, 24 hours.
The nature of data set [6]: Human plasma protein binding (equilibrium dialysis). Format: in vitro ADME. (In general: Equilibrium dialysis compares concentrations on both sides of a semipermeable membrane.)
Data set [7] has as its target hERG potassium channel (Homo sapiens (Human), UniProt Q12809).
The nature of data set [8]: Log D (shake flask, 1-octanol/aqueous buffer). Format: physicochemical.
Setting [9] is: aqueous phosphate buffer, 25 °C, pH 7.4, aqueous buffer.
[10] abbreviates: 1-octanol/aqueous buffer, pH 7.4, pH 7.4.

SMILES strings stand for the structures. In brackets after ≈: the same amount, converted by molar mass. Bounds are passed on as bounds.

T1 sequence (P03372 whole entry): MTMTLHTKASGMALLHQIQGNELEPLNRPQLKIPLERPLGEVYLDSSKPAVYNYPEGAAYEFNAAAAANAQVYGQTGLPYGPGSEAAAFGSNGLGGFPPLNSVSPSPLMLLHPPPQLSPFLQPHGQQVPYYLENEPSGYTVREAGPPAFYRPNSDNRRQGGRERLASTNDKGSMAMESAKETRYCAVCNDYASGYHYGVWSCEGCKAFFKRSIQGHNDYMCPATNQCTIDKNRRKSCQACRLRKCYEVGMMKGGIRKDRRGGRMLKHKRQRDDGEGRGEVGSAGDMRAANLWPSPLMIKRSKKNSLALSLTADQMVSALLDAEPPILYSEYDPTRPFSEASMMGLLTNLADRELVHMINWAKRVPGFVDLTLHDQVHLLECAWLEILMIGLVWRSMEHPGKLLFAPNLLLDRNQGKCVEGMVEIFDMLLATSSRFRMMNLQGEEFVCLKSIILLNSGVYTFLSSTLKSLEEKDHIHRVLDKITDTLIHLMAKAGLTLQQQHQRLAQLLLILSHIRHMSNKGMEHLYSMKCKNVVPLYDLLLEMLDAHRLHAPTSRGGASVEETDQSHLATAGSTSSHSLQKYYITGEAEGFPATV
Chain of estrogen receptor (ERα) in CAMA-1 cells (P03372 whole entry): as above
Chain of hERG potassium channel (Q12809 whole entry): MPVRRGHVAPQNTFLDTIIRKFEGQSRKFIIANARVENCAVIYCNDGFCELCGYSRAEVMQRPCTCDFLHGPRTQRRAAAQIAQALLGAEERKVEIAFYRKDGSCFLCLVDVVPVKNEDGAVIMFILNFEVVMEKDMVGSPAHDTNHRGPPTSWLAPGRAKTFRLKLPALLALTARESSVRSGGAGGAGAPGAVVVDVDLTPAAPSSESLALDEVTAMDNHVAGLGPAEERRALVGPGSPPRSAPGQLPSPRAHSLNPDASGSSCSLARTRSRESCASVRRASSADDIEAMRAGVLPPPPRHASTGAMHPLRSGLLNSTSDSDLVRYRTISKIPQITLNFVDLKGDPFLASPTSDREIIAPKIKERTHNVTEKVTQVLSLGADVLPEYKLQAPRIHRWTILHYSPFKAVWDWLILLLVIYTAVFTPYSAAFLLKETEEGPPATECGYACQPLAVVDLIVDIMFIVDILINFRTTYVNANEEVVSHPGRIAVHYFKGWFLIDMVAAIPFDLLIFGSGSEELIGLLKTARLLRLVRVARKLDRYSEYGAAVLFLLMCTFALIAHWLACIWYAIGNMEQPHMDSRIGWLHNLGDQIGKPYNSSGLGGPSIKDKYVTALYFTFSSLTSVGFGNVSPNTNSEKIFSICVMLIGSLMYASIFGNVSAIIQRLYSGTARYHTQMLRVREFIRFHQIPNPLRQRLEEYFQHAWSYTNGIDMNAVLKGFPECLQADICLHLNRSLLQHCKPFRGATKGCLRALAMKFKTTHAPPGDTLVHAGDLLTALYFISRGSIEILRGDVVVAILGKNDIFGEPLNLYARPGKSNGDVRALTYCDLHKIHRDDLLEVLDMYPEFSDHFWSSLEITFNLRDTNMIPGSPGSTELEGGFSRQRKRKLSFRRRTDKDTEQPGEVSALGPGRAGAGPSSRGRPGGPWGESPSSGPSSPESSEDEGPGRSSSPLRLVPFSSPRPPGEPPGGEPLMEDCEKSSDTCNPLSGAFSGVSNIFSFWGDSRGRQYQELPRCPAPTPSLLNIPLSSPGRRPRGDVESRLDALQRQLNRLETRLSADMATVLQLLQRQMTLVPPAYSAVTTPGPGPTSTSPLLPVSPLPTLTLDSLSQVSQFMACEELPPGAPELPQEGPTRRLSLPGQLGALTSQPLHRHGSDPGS

On to `Cc1c(OCCN(C)CCCF)ccc(F)c1[C@@H]1c2[nH]c3ccccc3c2C[C@@H](C)N1C[C@H](C)C(=O)O` [Example 143, (S)-3-((1R,3R)-1-(6-fluoro-3-(2-((3-fluoropropyl)(methyl)amino)ethoxy)-2-methylphenyl)-3-methyl-1,3,4,9-tetrahydro-2H-pyrido[3,4-b]indol-2-yl)-2-methylpropanoic acid], for which the “CAMA1 Western % ER deg vs Fv” value in data set [1] turned out to be 71%. The “MCF7 Western % ER deg vs Fv” value in data set [2] came to 87%.
The term IC50 denotes the concentration that gives 50% inhibition. As to `C[C@@H](CN1[C@H](c2c(F)ccc(OCCNCCCF)c2Cl)c2[nH]c3ccccc3c2C[C@H]1C(F)(F)F)C(=O)O` [Example 141], the values for the IC50 in data set [3] and in data set [4] were 0.98 nM and 2.8 nM, respectively. Also, the “MCF7 Western % ER deg vs Fv” value in data set [2] came to 79%.
Take `C[C@@H]1Cc2c([nH]c3ccccc23)[C@@H](c2cc(OCCNCCCF)ccc2F)N1CC(F)(F)F` [Example 10, 3-fluoro-N-(2-(4-fluoro-3-((1R,3R)-3-methyl-2-(2,2,2-trifluoroethyl)-2,3,4,9-tetrahydro-1H-pyrido[3,4-b]indol-1-yl)phenoxy)ethyl)propan-1-amine]: the “CAMA1 Western % ER deg vs Fv” value in data set [1] is 101%. Besides, in data set [2], the “MCF7 Western % ER deg vs Fv” value is on record as 94%.
Regarding `Cc1c(OCCNCCC(F)F)ccc(F)c1[C@@H]1c2[nH]c3ccccc3c2C[C@@H](C)N1C[C@@H](C)C(=O)O` [Example 123, (R)-3-((1R,3R)-1-(3-(2-((3,3-difluoropropyl)amino)ethoxy)-6-fluoro-2-methylphenyl)-3-methyl-1,3,4,9-tetrahydro-2H-pyrido[3,4-b]indol-2-yl)-2-methylpropanoic acid], the “CAMA1 Western % ER deg vs Fv” value in data set [1] came to 90%. In addition, the IC50 in data set [3] worked out at 0.96 nM; in data set [4] it was 11 nM. Moreover, the “MCF7 Western % ER deg vs Fv” value in data set [2] is 91%.
Turning to `Cc1c(OCCN(C)CCCF)ncc(F)c1[C@@H]1c2[nH]c3ccccc3c2C[C@@H](C)N1C[C@@H](C)C(=O)O` [Example 152, (R)-3-((1R,3R)-1-(5-fluoro-2-(2-((3-fluoropropyl)(methyl)amino)ethoxy)-3-methylpyridin-4-yl)-3-methyl-1,3,4,9-tetrahydro-2H-pyrido[3,4-b]indol-2-yl)-2-methylpropanoic acid], in data set [2], the “MCF7 Western % ER deg vs Fv” value is recorded as 93%.
Take `COc1ccc(OCCNCCCF)c(F)c1[C@@H]1c2[nH]c3ccccc3c2C[C@@H](C)N1CC(F)(F)F` [Example 11, 3-fluoro-N-(2-(2-fluoro-4-methoxy-3-((1R,3R)-3-methyl-2-(2,2,2-trifluoroethyl)-2,3,4,9-tetrahydro-1H-pyrido[3,4-b]indol-1-yl)phenoxy)ethyl)propan-1-amine]: the “CAMA1 Western % ER deg vs Fv” value in data set [1] is reported as 92%. The IC50 stood at 0.14 nM in data set [3] and 1.2 nM in data set [4]. For the same molecule, in data set [2], the “MCF7 Western % ER deg vs Fv” value came out at 94%.
For `Cc1c(OCCN(C)CCCF)ncc(F)c1[C@@H]1c2[nH]c3ccccc3c2C[C@@H](C)N1C[C@H](C)C(=O)O` [Example 145, (S)-3-((1R,3R)-1-(5-fluoro-2-(2-((3-fluoropropyl)(methyl)amino)ethoxy)-3-methylpyridin-4-yl)-3-methyl-1,3,4,9-tetrahydro-2H-pyrido[3,4-b]indol-2-yl)-2-methylpropanoic acid], in data set [2], the “MCF7 Western % ER deg vs Fv” value is given as 94%.
As usually defined, the solubility is how much of the substance goes into solution per volume. A low value points to little dissolved substance. As for `Cc1c(OCCNCCCF)cccc1[C@@H]1c2[nH]c3ccccc3c2C[C@@H](C)N1CC(F)(F)F` [Example 20, 3-fluoro-N-(2-(2-methyl-3-((1R,3R)-3-methyl-2-(2,2,2-trifluoroethyl)-2,3,4,9-tetrahydro-1H-pyrido[3,4-b]indol-1-yl)phenoxy)ethyl)propan-1-amine], the “CAMA1 Western % ER deg vs Fv” value in data set [1] was determined as 91%. The solubility at 24 h in data set [5] (setting [9]) came to 11 µM (≈ 5.25 µg/mL).
Consider `C[C@@H]1Cc2c([nH]c3ccccc23)[C@@H](c2c(F)ccc(OCCNCCCF)c2F)N1CC(F)(F)CO` [Example 14, 3-((1R,3R)-1-(2,6-difluoro-3-(2-((3-fluoropropyl)amino)ethoxy)phenyl)-3-methyl-1,3,4,9-tetrahydro-2H-pyrido[3,4-b]indol-2-yl)-2,2-difluoropropan-1-ol], for which the “CAMA1 Western % ER deg vs Fv” value in data set [1] came to 95%. In data set [2], the “MCF7 Western % ER deg vs Fv” value was determined as 95%.
For the molecule `Cc1c(OCCNCCCF)ccc(F)c1[C@@H]1c2[nH]c3ccccc3c2C[C@@H](C)N1C[C@H](C)C(=O)O` [Example 55, (S)-3-((1R,3R)-1-(6-fluoro-3-(2-((3-fluoropropyl)amino)ethoxy)-2-methylphenyl)-3-methyl-1,3,4,9-tetrahydro-2H-pyrido[3,4-b]indol-2-yl)-2-methylpropanoic acid], the “CAMA1 Western % ER deg vs Fv” value in data set [1] was determined as 94%. For the same molecule, the “MCF7 Western % ER deg vs Fv” value in data set [2] came to 89%.
For `Cc1c(OCCNCCCF)ccc(F)c1[C@@H]1c2[nH]c3ccc(F)cc3c2C[C@@H](C)N1C[C@H](C)C(=O)O` [Example 57, (S)-3-((1R,3R)-6-fluoro-1-(6-fluoro-3-(2-((3-fluoropropyl)amino)ethoxy)-2-methylphenyl)-3-methyl-1,3,4,9-tetrahydro-2H-pyrido[3,4-b]indol-2-yl)-2-methylpropanoic acid], the IC50 stood at 0.34 nM in data set [3] and 2.6 nM in data set [4]. Moreover, the “MCF7 Western % ER deg vs Fv” value in data set [2] is given as 93%.
Taken in the same sequence, the figures for `Cc1c(OCCNCCCF)ccc(F)c1[C@@H]1c2[nH]c3ccccc3c2C[C@@H](C(F)(F)F)N1C[C@H](C)C(=O)O` [Example 140, (S)-3-((1R,3S)-1-(6-fluoro-3-(2-((3-fluoropropyl)amino)ethoxy)-2-methylphenyl)-3-(trifluoromethyl)-1,3,4,9-tetrahydro-2H-pyrido[3,4-b]indol-2-yl)-2-methylpropanoic acid] were 1 nM, 1.4 nM and 84%.
The term logD denotes the decadic logarithm of the distribution of all forms, ionised or not, between an organic phase and buffer at a given pH. Read a low logD as lower lipophilicity. Consider `COc1ccc(NCCNCCCF)cc1[C@@H]1c2[nH]c3ccccc3c2C[C@@H](C)N1CC(F)(F)F` [Example 40, N1-(3-fluoropropyl)-N2-(4-methoxy-3-((1R,3R)-3-methyl-2-(2,2,2-trifluoroethyl)-2,3,4,9-tetrahydro-1H-pyrido[3,4-b]indol-1-yl)phenyl)ethane-1,2-diamine], for which, in data set [6], the “Human plasma protein binding (% free)” value worked out at 0.89 % free. Also, the “CAMA1 Western % ER deg vs Fv” value in data set [1] came out at 70%. In addition, the half-inhibitory concentration (IC50) in data set [3] came out at 0.53 nM; in data set [7], 4100 nM; in data set [4], 7.9 nM. The same molecule returned a logD in data set [8] (setting [10]) of 3. In data set [5] (setting [9]), this molecule gave a solubility at 24 h of 366 µM (≈ 180 µg/mL).
As for `COc1ccc(OCCNCCCF)c(F)c1[C@@H]1c2[nH]c3ccc(F)cc3c2C[C@@H](C)N1CC(F)(F)CO` [Example 86, 2,2-difluoro-3-((1R,3R)-6-fluoro-1-(2-fluoro-3-(2-((3-fluoropropyl)amino)ethoxy)-6-methoxyphenyl)-3-methyl-1,3,4,9-tetrahydro-2H-pyrido[3,4-b]indol-2-yl)propan-1-ol], in data set [6], the “Human plasma protein binding (% free)” value is given as 2.6 % free. The half-maximal inhibitory concentration (IC50) in data set [3] turned out to be 0.17 nM; in data set [7], 3900 nM; in data set [4], 0.86 nM. In data set [8] (setting [10]), the pH-dependent lipophilicity (logD) came to 2.9. In data set [5] (setting [9]), the solubility at 24 h is 385 µM (≈ 209 µg/mL).
With `COc1cc(F)c(NCCNCCCF)cc1[C@@H]1c2[nH]c3ccccc3c2C[C@@H](C)N1CC(F)(F)F` [Example 91, N1-(2-fluoro-4-methoxy-5-((1R,3R)-3-methyl-2-(2,2,2-trifluoroethyl)-2,3,4,9-tetrahydro-1H-pyrido[3,4-b]indol-1-yl)phenyl)-N2-(3-fluoropropyl)ethane-1,2-diamine], in data set [6], the “Human plasma protein binding (% free)” value came to 0.93 % free. For the same molecule, the IC50 in data set [3] was 15 nM; in data set [7], 2600 nM; in data set [4], 9.4 nM. Moreover, the logD in data set [8] (setting [10]) was 2.9. Moreover, the solubility at 24 h in data set [5] (setting [9]) stood at 280 µM (≈ 143 µg/mL).
Regarding `COCc1ccc(OCCNCCCF)cc1[C@@H]1c2[nH]c3ccccc3c2C[C@@H](C)N1CC(F)(F)F` [Example 71, 3-fluoro-N-(2-(4-(methoxymethyl)-3-((1R,3R)-3-methyl-2-(2,2,2-trifluoroethyl)-2,3,4,9-tetrahydro-1H-pyrido[3,4-b]indol-1-yl)phenoxy)ethyl)propan-1-amine], the “Human plasma protein binding (% free)” value in data set [6] was determined as 0.44 % free. Besides, the IC50 was found to be 2 nM in data set [3], 5800 nM in data set [7] and 3.4 nM in data set [4]. For the same molecule, the “% downregulation (in brackets)” value in data set [3] (maximum downregulation) is reported as 90%. The molecule also registered a logD in data set [8] (pH 7.4) of 3.8. In data set [5] (aqueous buffer, 25° C.), the solubility at 24 h is below 1.6 µM.
On to `Cc1ccc(OCCNCCCF)nc1[C@@H]1c2[nH]c3ccccc3c2C[C@@H](C)N1CC(F)(F)F` [Example 105, 3-fluoro-N-(2-((5-methyl-6-((1S,3R)-3-methyl-2-(2,2,2-trifluoroethyl)-2,3,4,9-tetrahydro-1H-pyrido[3,4-b]indol-1-yl)pyridin-2-yl)oxy)ethyl)propan-1-amine], for which, in data set [6], the “Human plasma protein binding (% free)” value was 1 % free. The IC50 in data set [3] was found to be 39 nM; in data set [7], 3500 nM; in data set [4], 42 nM. In data set [8] (setting [10]), this molecule gave a log distribution coefficient (logD) of 3.4. In data set [5] (setting [9]), this molecule yielded a solubility at 24 h of 136 µM (≈ 65.1 µg/mL).
Take `COc1nnc(OCCNCCCF)cc1[C@@H]1c2[nH]c3ccccc3c2C[C@@H](C)N1CC(F)(F)F` [Example 112, 3-fluoro-N-(2-((6-methoxy-5-((1R,3R)-3-methyl-2-(2,2,2-trifluoroethyl)-2,3,4,9-tetrahydro-1H-pyrido[3,4-b]indol-1-yl)pyridazin-3-yl)oxy)ethyl)propan-1-amine]: the “Human plasma protein binding (% free)” value in data set [6] amounted to 1.5 % free. Besides, the values for the IC50 in data set [3], in data set [7] and in data set [4] were 0.95 nM, 19000 nM and 2 nM, respectively. The molecule also registered a logD in data set [8] (setting [10]) of 3.2. The molecule further displayed a solubility at 24 h in data set [5] (setting [9]) of 92 µM (≈ 45.6 µg/mL).
